Source: patent US20080038402A1, “RUMINANT ANIMAL FEED FORMULATIONS AND METHODS OF FORMULATING SAME” (priority 2006, published 2008)
Marks after values point to notes of the source that are not given here.

Legend:
[1] = tested on: rumen fluid; assay: Rumen fluid pH and volatile fatty acids in rumen-fistulated cows (4x4 latin square); format: in vivo
Description: (§1) The use of the RAFA, were compared with an animal control. A four by four latin square design was used, employing four rumen-fistulated cows. Cows were fed a standard TMR (total mixed ration) for at least 7 days prior to the start of the experiment, and were assigned to one of the following four 21 day ration sequences: ABCD, BCDA, CDAB, and DABC, where A, B, C, and D are as follows: (A) control (standard TMR); (B) Monensin (control diet plus 200 mg/kg monensin); (C) Surfactant (control diet plus 316 mg/kg Surfactant); (D) Essential Oil (control diet plus 5 mg/kg Essential Oil).
(§2) Rumen fluid was sampled via the fistula using the Geishawer probe according to standard methodology, with sampling done 2 hours pre-feeding, and again at 2, 4, and 6 hours post-feeding at day 19, 20 or 21 of a 21 day feeding period. Fluid was strained through 4 ply cheesecloth into duplicate containers treated with phosphoric acid (preservative). At the end of each feeding period, rumen fluid from the 2 hours pre-feeding sample was placed into a pre-warmed half litre vacuum flask and forwarded for in vitro studies, described below. The vacuum flask was filled and covered immediately after sampling.
Rumen fluid pH and volatile fatty acids (VEA) were measured.

[2] = tested on: rumen-fistulated cows; assay: Daily milk production and feed consumption; format: in vivo; conditions: by treatment
Description: as §1

[3] = tested on: rumen fluid; assay: Rumen gas production in vitro (rumen fluid added to buffer and food source, 0 to 6 hours); format: cell-based; conditions: by treatment of donor cows
Description: as §2
Rumen fluid samples were also added to buffer and food source, and gas production was recorded from time 0 to 6 hours.

[4] = tested on: rumen fluid; assay: Redox, pH and dry matter disappearance of rumen fluid incubated 6 hours at 39° C.; format: cell-based, cows; conditions: by treatment
Description: as §2
(§3) Temperature, pH, redox on strained and unstrained rumen fluid were measured to assess viability and consistency. The rumen fluid was incubated for 6 hours at 39° C. with (1) control 0.13 g soybean meal (SBM) and 0.13 g TMR food sample; and (2) test 0.13 g Top Soy and 0.13 g TMR. Samples were analyzed for ammonia concentration and substrate disappearance.

[5] = tested on: rumen fluid; assay: Concentration and breakdown of VFA in vitro in incubated rumen fluid; format: cell-based, cows; conditions: by treatment
Description: as §3
Concentration and breakdown of volatile fatty acids (VFA) in vitro were tabulated in Table 7, below, as results of statistical analysis across all timepoints.

[6] = tested on: rumen fluid; assay: Rumen ammonia level after incubation, by treatment and soy process; format: cell-based, cows; conditions: by treatment
Description: as §3
This trial further validates the adjustments applied to KB in the method when monensin sodium, Surfactant or Essential Oil are included in the diet. Adjustment factors for each RAFA were calculated as the ratio of additive ammonia production to that of the control and applied to the KB during formulation.

[7] = tested on: rumen fluid; assay: Example 3a in vitro rumen fluid incubation (gas, DMD, VFA): monensin, soy oil, Ca salts of soy oil; format: cell-based
Excerpt: One objective of this experiment was to compare these lipid sources (soy oil and calcium salts of soy oil) with each other and in the presence and absence of monensin sodium.
Production of iso-valeric acid and n-valeric acid was also used to estimate the level of protein (specifically branched chain amino acid) degradation in the rumen (Benchaar et al 1998), and results of VFA production can thus be used as an adjustment factor to express the benefit of such additives on protein degradability.
(§4) The measurement of rumen gas production over time is a well described technique (Minson 1998) and is subject to small variation between laboratories. In this laboratory, the substrate employed in all experiments was based on a dried TMR sample. Data from gas measurement observations using two replicates (true volume corrected by subtraction of corresponding negative control values at similar time point) was analyzed by ANOVA with time, treatment, and replicate as main effects in the model. The interaction of time by treatment by replicate was used as the error term. Dry matter digestibility was analyzed by ANOVA with treatment as the main effect in the model and treatment by replicate interaction as the error term. VFA parameters were analyzed by ANOVA with treatment as the main effect in the model and treatment by replicate interaction as the error term.
Statistical summaries are given in Tables 10-12 below for Mean Gas Production (0 to 6 hours incubation), DMD (Dry Matter Digestibility) %, VFA Tot. (Volatile Fatty Acids total moles), Acetic, Propionic, Butyric, Isobutyric, Isovaleric, and n-Valeric acids (molar percentages).
This trial further validates the adjustments applied to KB when monensin and soy oil are included in the diet either separately or in combination. Adjustment factors are calculated as the ratio of rumen active feed additive valerate production (i-valeric acid plus n-valeric acid) in the combination treatment to that of the control (TMR with CaSalts of SoyOil). Using this approach, KB can be adjusted by the following factors: • Monensin=6.36/7.20=0.88 • SoyOil=6.95/7.20=0.97 • Monensin+SoyOil=5.40/7.20=0.75

[8] = tested on: rumen fluid; assay: Example 3c in vitro rumen fluid incubation (gas, DMD, VFA): monensin, organic acid, yeast culture, fermentation solubles; format: cell-based
Description: as §4, with “Data from gas measurement observations using two replicates (true volume corrected by subtraction of corresponding negative control values at similar time point) was analyzed by ANOVA with time, treatment, and replicate as main effects in the model.” left out
The protocol used in Example 3a was also used in 3c to investigate the additive effects of other RAFA
Statistical summaries were tabulated in Tables 18-20 below for Mean Gas Production (0 to 6 hours incubation), DMD (Dry Matter Digestibility) %, VFA Tot. (Volatile Fatty Acids total moles), Acetic, Propionic, I-Butyric, n-Butyric, Isovaleric, and n-Valeric acids (molar percentages).

monensin sodium
Rumen pH ([1]; by treatment across all time points, 21 day ration, monensin 200 mg/kg, Surfactant 316 mg/kg, Essential Oil 5 mg/kg diet): 6.07 | Acetic (acetic acid) ([1]; rumen fluid by treatment): 57.90^b molar percentage | Prop (propionic acid) ([1]; rumen fluid by treatment): 24.91^c molar percentage | VFA total ([1]; rumen fluid by treatment): 102.64^b mmol/L | i-But (i-butyric acid) ([1]; rumen fluid by treatment): 0.95^b molar percentage | i-Val (i-valeric acid) ([1]; rumen fluid by treatment): 1.08^c molar percentage | n-But (n-butyric acid) ([1]; rumen fluid by treatment): 12.33 molar percentage | n-Val (n-valeric acid) ([1]; rumen fluid by treatment): 2.82^b molar percentage | Molar yields of propionate ([1]; rumen fluid by treatment, control 24.81): 25.56 | DMI (dry matter intake) [2]: 24.7^ab kg/day | Milk [2]: 43.7 kg/day | Milk/kg DMI [2]: 1.77 | GAS [3]: 10.39^c ml | pH at T0 [4]: 6.31 | DMD % ([4]; 6 hours at 39° C.): 40.43% | Redox (seconds) at T0 ([4]; cell viability): 30 s | Acetic [5]: 58.62^a molar percentage | Prop [5]: 25.51^a molar percentage | VFA total [5]: 75.03^c mmol/L | i-But [5]: 1.18 molar percentage | i-Val [5]: 1.44^b molar percentage | n-But [5]: 12.09^bc molar percentage | n-Val [5]: 1.16^c molar percentage | Baseline-corrected Ammonia post incubation [6]: 27.49^a mg/L | Baseline-corrected percent Ammonia reduction with Top Soy relative to SBM [6]: 45.26% | Acetic ([7]; VFA): 60.97^ab molar % | Prop ([7]; VFA): 20.82^b molar % | i-But ([7]; VFA): 1.06^c molar % | i-Val ([7]; VFA): 4.65^a molar % | n-But ([7]; VFA): 10.79 molar % | n-Val ([7]; VFA): 1.71 molar % | Mean Gas ml 0–6 hr ([7]; calculated as increase over Control, 6.6 mg/L monensin, 6 g/L lipid): 5.31^e ml | DMD % ([7]; dry matter disappearance): 43.48^a % | VFA, moles ([7]; total VFA production): 52.51^a moles | DMD % ([8]; Dry Matter Digestibility): 19.4^ad % | Acetic ([8]; VFA): 60.5 mmol/100 mmol | Prop ([8]; VFA): 22.4^ab mmol/100 mmol | i-But ([8]; VFA): 4.1^bc mmol/100 mmol | i-Val ([8]; VFA): 1.5^abd mmol/100 mmol | n-But ([8]; VFA): 10.2 mmol/100 mmol | n-Val ([8]; VFA): 1.2^abc mmol/100 mmol | Mean Gas ml 0–6 hr ([8]; calculated as increase over negative Control): −0.9^b ml | VFA total ([8]; total yields): 41.6^b mmol/L
